The record followed here is patent US12595281B2, “Indodicarbocyanine phosphoramidites with bathochromically shifted absorption and emission, and tunable hydrophobicity” (The Government of the United States of America, as …, priority 2022, dated 2026).

The nature of this series: Methanol content to elute DNA-dye sequences from reverse phase HPLC column. It counts as physicochemical. Conditions: average over sequences HJA-D and HJAcomp containing the dye. How it is done: Desalted oligo solutions were then analyzed by liquid chromatography-mass spectrometry (LCMS, see Characterization below for more detail) to confirm the presence of correct sequence in the crude product. Samples containing the confirmed dye-labeled DNA sequences were then pooled and purified by preparatory scale reverse phase HPLC (2707 Autosampler, 2545 Quaternary Gradient Module, 2998 Photodiode Array Detector, and Fraction Collector III, Waters, Inc, Milford, MA) using an XBridge OST C18 OBD 19×50 mm column (Part No. 186008962, Waters, Inc, Milford, MA) with a gradient of increasing methanol in 0.1 M TEAA (aq.). For Cy5-hex, Cy5-Peg and Cy5-tBu containing sequences, LC fractions were concentrated to dryness directly from the 0.1 M TEAA buffer/methanol solution. […] Dried LC fractions were reconstituted in small volumes of water (Optima Grade), to keep concentration sufficiently high (25-50 μM) to visualize and separate low percentage impurities on LCMS. Purified fractions were combined, concentrated, then re-analyzed via LCMS for a final purity assessment.
Due to the overall poor solubility of the parent cyanine dye derivatives in water, the octanol-water partition coefficient (log P) could not be determined by the traditional “shake flask” method. In lieu of this approach, modelling software developed by Advanced Chemistry Development, Inc. was used to predict the partition coefficient and solubility in water (log S0), as shown in Table 2. As an additional means of comparison with direct relevance to the final intended utility of these oligos, the average concentration of methanol required to elute the DNA sequences containing the given dye from the reverse phase HPLC column was determined (the greater the methanol content required to elute, the more hydrophobic the dye). The DNA-dye sequences were utilized for this instead of the free dyes because they are capable of eluting at lower methanol content, but the hydrophobic character of the dye still dominates the elution profile. […] This is in close agreement with the relative “stickiness” of the DNA-dye sequences towards […] stationary phase.

Structures are written as SMILES.

For the compound `COc1ccc(C(OCCCN2C(=CC=CC=CC3=[N+](CCCO)c4ccc(Cl)cc4C3(C)C)C(C)(C)c3cc(Cl)ccc32)(c2ccccc2)c2ccccc2)cc1.[I-]` [Cy5-Cl, 5,5′-dichloro-1-(3-hydroxypropyl)-1′-(3-monomethoxytritylpropyl)-tetramethyl-dicarboindocyanine iodide], the “Av. % MeOH for DNA-dye elution” value was 30.5%.

`COCCOCCOCCOc1ccc2c(c1)C(C)(C)C(=CC=CC=CC1=[N+](CCCO)c3ccc(OCCOCCOCCOC)cc3C1(C)C)N2CCCOC(c1ccccc1)(c1ccccc1)c1ccc(OC)cc1.[I-]` [Cy5-Peg, 1-(3-hydroxypropyl)-1′-(3-monomethoxytritylpropyl)-5,5′-bis{2-[2-(2-methoxyethoxy)ethoxy]ethoxy}-3,3,3′,3′-tetramethyl-dicarboindocyanine iodide]: the “Av. % MeOH for DNA-dye elution” value is 31.5%.

Turning to `CCCCCCOc1ccc2c(c1)C(C)(C)C(=CC=CC=CC1=[N+](CCCO)c3ccc(OCCCCCC)cc3C1(C)C)N2CCCOC(c1ccccc1)(c1ccccc1)c1ccc(OC)cc1.[I-]` [Cy5-hex, 1-(3-hydroxypropyl)-1′-(3-monomethoxytritylpropyl)-5,5′-bis(n-hexyloxy)-3,3,3′,3′-tetramethyl-dicarboindocyanine iodide], the “Av. % MeOH for DNA-dye elution” value was found to be 51%.

For the compound `COc1ccc(C(OCCCN2C(=CC=CC=CC3=[N+](CCCO)c4ccc(C(C)(C)C)cc4C3(C)C)C(C)(C)c3cc(C(C)(C)C)ccc32)(c2ccccc2)c2ccccc2)cc1.[I-]` [Cy5-tBu, 1-(3-hydroxypropyl)-1′-(3-monomethoxytritylpropyl)-5,5′-bis(tert-butyl)-3,3,3′,3′-tetramethyl-dicarboindocyanine iodide], the “Av. % MeOH for DNA-dye elution” value is 41%.
